Reference: patent US9259452B2, “Deacetylase inhibitor therapy” (Celgene Corporation, priority 2006, dated 2016)
Values joined by “and” are separate entries in the source; they are usually repeats but may differ in a detail not shown here. Equal entries are not always repeated. Marks after values point to notes of the source that are not given here.

How the values were obtained:
[1] = Rhythm evaluation by Holter and telemetry monitoring; assay type: in vivo, human
Excerpt: Rhythm: A 24-hour Holter monitor was obtained prior to initiating therapy to establish a baseline rhythm. Patients were monitored by telemetry following administration of the first dose until discharge on day 3.

[2] = Serum cardiac troponin I and CPK levels prior to and on the day after each dose
Method: An additional ECG was obtained on day 3 of the first cycle. ECGs were obtained using an HP Pagewriter XLi or a GE Marquette MAC1200 and recorded at 25 mm/sec, with an amplitude of 10 mm/mV and with 60 Hz filtering. They were analyzed using Pagewriter A.04.01 ECG analysis software (Philips Medical Systems). The QT interval measurement in this program is made by averaging the five longest QT intervals with a T or T′ wave amplitude greater than 0.15 mV. […] Grade 1 toxicity was defined as nonspecific T-wave abnormalities, (flattening or inversion without ST segment abnormalities) and Grade 2 as ST segment depression of at least 1 mm in at least 2 leads. If both were observed, then the ECG was assigned a grade 2 toxicity. […] The QTc analysis was performed on ECGs obtained during the first six cycles from patients treated on the day 1, 8 and 15 schedule (37 patients). ECGs from patients with an intraventricular conduction delay, defined as QRS duration greater than 100 ms, were excluded from the QTc analysis since in that setting the QTc interval includes a variable depolarization interval that leads to a prolonged QTc value (22).

[3] = Left ventricular ejection fraction (LVEF) evaluation by MUGA, echocardiogram or cardiac MRI; assay type: in vivo, human
Method: Evaluation of left ventricular ejection fraction: LVEF evaluations were performed at baseline, after the second cycle and every 3 cycles thereafter using MUGA, echocardiogram or cardiac MRI (23, 24). A patient's on-study and last available LVEF are included in this analysis. Cardiac measurements were performed according to the American Society of Echocardiography guidelines (25). LVEFs from echocardiograms were evaluated by an independent reviewer in a blinded manner and were assessed using the biplane Simpson's method.

[4] = QTc analysis (heart rate-corrected QT interval) on ECGs, phase II trial; conditions: for Least Square mean QT interval: all doses of first 6 cycles
[5] = obtained in parallel with elevated cTnI samples, individual cases
[6] = 16 patients receiving at least 6 cycles
[7] = 16 patients receiving at least 6 cycles, baseline
[8] = Bazett's formula, 2051 ECGs, 42 patients
[9] = first 6 cycles, all 42 patients
[10] = re-calculated using Friderica's formula

In the case of C/C=C1\NC(=O)[C@H]2CSSCC/C=C/[C@H](CC(=O)N[C@H](C(C)C)C(=O)N2)OC(=O)[C@H](C(C)C)NC1=O [romidepsin, (1S,4S,10S,16E,21R)-7-[(2Z)-ethylidene]-4,21-diisopropyl-2-oxa-12,13-dithia-5,8,20,23-tetraazabicyclo[8.7.6]tricos-16-ene-3,6,9,19,22-pentanone], the “VT on 24-hour Holter during administration” value ([1]; 20 administrations to 9 patients, including 2 with VT pre-treatment) was “No patient had VT”, the “Patients noted to have SVT on 24-hour Holter during administration” value ([1]; 20 administrations to 9 patients, episodes similar to pretreatment Holter) was “Two” and the “Additional patients observed to have wide complex tachycardia on telemetry” value ([1]; telemetry 24-36 hours, 36 patients, max one event per 24 hr, 4 to 12 beats) was “Four”. For the same compound, the “Additional patients observed to have rare SVT on telemetry” value ([1]; telemetry 24-36 hours, 36 patients, similar frequency on pre-treatment Holter) was “Three”, the “Number of cTnI samples found to be elevated” value ([2]; from 8 patients, 601 pre-treatment and 590 day-after samples) was 10 and the “CPK Post-treatment” value [2, 5] was 20 and 28 (2×) and 18 and 16 and 85 and 157 and 144 and 162. The “CPK Pre-treatment” value [2, 5] was 29 and 43 and 27 and 47 and 70 and 200 and 179 and 28 and 39 and 160, the “CPK samples obtained in parallel with the 10 elevated cTnI samples” value ([2]; range, unchanged from pre-treatment) was 16-200 and the “Troponin Post-treatment” value ([2]; serum cTnI, day following treatment, individual cases) was 2.1-3.3 ng/ml and ≦0.2 ng/ml and 3.3 ng/ml and 2.1 ng/ml and 2.6 ng/ml and 8.3 ng/ml and 2.3 ng/ml and 15.8 ng/ml and 3.6 ng/ml. For the same compound, the “Troponin Repeat (of elevated pre-treatment sample)” value ([2]; serum cTnI, individual cases) was ≤ 0.2 ng/ml and ≦0.2 ng/ml, the “Troponin Pre-treatment” value ([2]; serum cTnI, individual cases with an elevated sample among 1191 samples) was 3.4-11.3 ng/ml and 11.3 ng/ml and ≦0.2 ng/ml and 3.4 ng/ml and 6.4 ng/ml and the “Troponin Repeat (of elevated post-treatment sample)” value ([2]; serum cTnI, repeated the same day, individual cases) was ≤ 0.2 ng/ml and ≦0.2 ng/ml. For the same compound, the “Pre-treatment versus post-treatment LVEF” value ([3]; 8 patients with six or more cycles and prior doxorubicin) was “did not demonstrate a difference in pre-treatment and post-treatment LVEF”, the “Latest EF, Median” value [3, 6] was 63.5% and the “Latest EF, Range” value [3, 6] was 50-80%. For the same compound, the “Starting EF, Median” value [3, 7] was 65.5%, the “Starting EF, Range” value [3, 7] was 50-85% and the “LVEF evaluations versus baseline” value ([3]; 16 patients who received six or more cycles, median cumulative dose 390 mg/m^2) was “did not demonstrate a change from baseline”. The “EF by MUGA, On-study Median (range)” value ([3]; All patients (19), baseline) was 61% (46-85), the “EF by Echocardiogram, On-study Median (range)” value ([3]; All patients (23), baseline) was 67% (53-85) and the “Median actual change in LVEF, on-study to last scan” value ([3]; MUGA scans, 13 patients, median 20.3 weeks) was 1%. For the same compound, the “EF by MUGA, Last evaluation Median (range)” value ([3]; Patients treated with >6 cycles (7)) was 61% (50-68), the “EF by MUGA, On-study Median (range)” value ([3]; Patients treated with >6 cycles (7), baseline) was 64% (50-77) and the “EF by Echocardiogram, Last evaluation Median (range)” value ([3]; Patients treated with >6 cycles (9)) was 68% (58-80). The “EF by Echocardiogram, On-study Median (range)” value ([3]; Patients treated with >6 cycles (9), baseline) was 69% (56-85), the “EF by MUGA, Last evaluation Median (range)” value ([3]; Patients with pre- and post treatment evaluations (13)) was 61% (50-91) and the “EF by MUGA, On-study Median (range)” value ([3]; Patients with pre- and post treatment evaluations (13), baseline) was 62% (46-85). The “EF by Echocardiogram, Last evaluation Median (range)” value ([3]; Patients with pre- and post treatment evaluations (22)) was 64% (53-87), the “EF by Echocardiogram, On-study Median (range)” value ([3]; Patients with pre- and post treatment evaluations (22), baseline) was 67% (53-85) and the “Median actual change in LVEF, on-study to last scan” value ([3]; echocardiograms, 22 patients, median 18.4 weeks) was −1%. The “Latest EF” value ([3]; individual patients receiving at least 6 cycles of therapy) was 50% and 78% and 61% (3×) and 72% and 68% (3×) and 80% and 58% (2×) and 70% and 63% and 64% and 60%, the “Starting EF” value ([3]; individual patients receiving at least 6 cycles of therapy, baseline) was 52% and 69% and 56% and 67% and 70% (2×) and 85% (2×) and 68% and 58% and 59% and 64% (2×) and 50% and 77% and 54% and the “Maximal increase of QTc, median” value ([4]; 31 patients, first six cycles) was 11.3%. For the same compound, the “Maximum increase in QTc” value ([4]; 31 patients, first six cycles) was 78.25 ms, the “Doses associated with a 30 to 60 ms prolongation of QTc” value ([4]; 349 doses, 31 patients) was 25% and the “Doses associated with a greater than 60 ms prolongation of QTc” value ([4]; 349 doses, 31 patients) was 2.6%. The “Median change of QTc from baseline” value ([4]; 670 ECGs obtained immediately post-treatment or on the day following treatment) was 13.42 ms, the “Share of ECGs with QTc over 450 ms that were obtained immediately post treatment or on the day following treatment” value ([4]; Bazett's formula) was “Eighty-nine” and the “Number of patients with QTc greater than 450 ms” value ([4]; Bazett's formula, 42 patients) was 28. For the same compound, the “Number of patients with QTc greater than 480 ms” value ([4]; Bazett's formula, 42 patients) was 10, the “Number of patients with QTc greater than 500 ms” value ([4]; Bazett's formula, 42 patients) was 4 and the “Number of ECGs with QTc greater than 450 ms” value [4, 8] was 163. The “Number of ECGs with QTc greater than 480 ms” value [4, 8] was 20, the “Number of ECGs with QTc greater than 500 ms” value [4, 8] was 5 and the “Share of ECGs with QTc greater than 450 ms” value [4, 8] was 8.0%. For the same compound, the “Share of ECGs with QTc greater than 480 ms” value [4, 8] was 1%, the “Share of ECGs with QTc greater than 500 ms” value [4, 8] was 0.2% and the “QTc Interval Difference [D2]-[4 hr], Median” value ([4]; C1) was 0.0 ms. The “QTc Interval Difference [D3]-[Baseline], Median” value ([4]; C1) was -2.5 ms, the “QTc Interval Difference [D3]-[D2], Median” value ([4]; C1) was -20.0 ms and the “QTc Interval Difference [D2]-[Baseline], Median” value ([4]; C1 (cycle 1)) was 10.8 ms. The “QTc Interval Difference [4 hr]-[Baseline], Median” value ([4]; C1 (cycle 1), first dose, day 1, 8, 15 schedule) was 16.5 ms, the “QTc Interval Difference [4 hr]-[Baseline], Median” value ([4]; C2) was 8.0 ms and the “QTc Interval Difference [D2]-[Baseline], Median” value ([4]; C2) was 13.2 ms. For the same compound, the “QTc Interval Difference [4 hr]-[Baseline], Median” value ([4]; C3) was 15.5 ms, the “QTc Interval Difference [D2]-[Baseline], Median” value ([4]; C3) was 5.3 ms and the “QTc Interval Difference [4 hr]-[Baseline], Median” value ([4]; C4) was 15.9 ms. For the same compound, the “QTc Interval Difference [D2]-[Baseline], Median” value ([4]; C4) was 15.5 ms, the “QTc Interval Difference [4 hr]-[Baseline], Median” value ([4]; C5) was 18.2 ms and the “QTc Interval Difference [D2]-[Baseline], Median” value ([4]; C5) was 14.8 ms. For the same compound, the “QTc Interval Difference [4 hr]-[Baseline], Median” value ([4]; C6) was 18.8 ms, the “QTc Interval Difference [D2]-[Baseline], Median” value ([4]; C6) was 17.8 ms and the “Least Square mean QT interval” value ([4]; Post dose, 31 patients, p < 0.0001 vs pre-dose) was 424.1*. The “Least Square mean QT interval” value ([4]; Pre-dose, 31 patients) was 409.7, the “Maximum increase in QTc over that patient's mean baseline QTc” value ([4]; baseline QTc of 415.75) was 19% and the “Least Square mean QT interval” value ([4]; day 1 (pre-treatment), 31 patients, repeated measures ANOVA) was 410.3. For the same compound, the “Least Square mean QT interval” value ([4]; day 2 (day after treatment), 31 patients) was 422.7, the “Least Square mean QT interval” value ([4]; day 8 (pre-treatment), 31 patients) was 410.8 and the “Least Square mean QT interval” value ([4]; day 9 (day after treatment), 31 patients) was 426.0. For the same compound, the “Least Square mean QT interval” value ([4]; day 15 (pre-treatment), 31 patients) was 408.0, the “Least Square mean QT interval” value ([4]; day 16 (day after treatment), 31 patients) was 423.7 and the “Doses associated with a 30 to 60 ms prolongation of QTc” value [4, 9] was 24%. The “Doses associated with a greater than 60 ms prolongation of QTc” value [4, 9] was 3.2%, the “Time after treatment by which QTc changes had reverted to baseline” value ([4]; first cycle) was ≤ 48 h and the “Number of ECGs demonstrating an increased QTc from baseline” value ([4]; of 670 ECGs obtained immediately post-treatment or on the day following treatment, 31 patients) was 514. For the same compound, the “Number of ECGs with QTc greater than 450 ms” value [4, 10] was 27, the “Number of ECGs with QTc greater than 480 ms” value [4, 10] was 3 and the “Number of patients with QTc greater than 450 ms” value [4, 10] was 15. For the same compound, the “Number of patients with QTc greater than 480 ms” value [4, 10] was 3, the “QTc greater than 500 ms” value [4, 10] was “no QTc was greater than 500 ms” and the “Share of ECGs with QTc greater than 450 ms” value [4, 10] was 1.3%. For the same compound, the “Share of ECGs with QTc greater than 480 ms” value [4, 10] was 0.1%.
